Measured values from patent US9376425B2, “Heterocyclic compounds as MDM2 inhibitors for the treatment of cancer” (AMGEN INC., priority 2011, dated 2016).

Target: T1, human MDM2 (GST-hMDM2 1-188), interaction with biotinylated-p53 (1-83) (Homo sapiens, UniProt Q00987)
T1 construct: Amino acid residues 1-188 of human MDM2 were expressed; made in house; host or cells: Escherichia coli
Experiment: improved HTRF assay (HTRF2 assay), inhibition of HDM2-p53 interaction
Type: binding
Details: 0.2 nM GST-hMDM2, 0.5 nM biotinylated-p53, 100 mM KF
Method in brief: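 Time-resolved fluorescence (HTRF) read after >4 h equilibration with SA-XLent/anti-GST cryptate/KF detection reagents. Reaction: compound plus GST-hMDM2 for 20 min at room temperature, then E. coli-expressed biotinylated p53 residues 1-83 for 60 min, 2% DMSO final. Inhibition expressed versus nutlin-3.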

T1 sequence (Q00987 1-188): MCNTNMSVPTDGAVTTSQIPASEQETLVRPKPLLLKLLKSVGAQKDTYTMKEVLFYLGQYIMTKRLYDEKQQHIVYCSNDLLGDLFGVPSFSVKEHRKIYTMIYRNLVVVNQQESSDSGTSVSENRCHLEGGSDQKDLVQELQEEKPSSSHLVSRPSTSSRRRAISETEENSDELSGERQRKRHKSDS

Row | SMILES | IC50 [nM]
1 | CC(C)(C)S(=O)(=O)C[C@H](C1CC1)N1C(=O)[C@@H](CCO)O[C@H](c2cccc(Cl)c2)[C@H]1c1ccc(Cl)cc1 (single isomer, unassigned) [Example 370, (2R,5R,6R)-4-((S)-2-(tert-Butylsulfonyl)-1-cyclopropylethyl)-6-(3-chlorophenyl)-5-(4-chlorophenyl)-2-(2-hydroxyethyl)morpholin-3-one or (2S,5R,6R)-4-((S)-2-(tert-butylsulfonyl)-1-cyclopropylethyl)-6-(3-chlorophenyl)-5-(4-chlorophenyl)-2-(2-hydroxyethyl)morpholin-3-one] | 28
2 | CC[C@@H](CS(=O)(=O)C(C)(C)C)N1C(=O)[C@@H](C[C@@H](O)CO)O[C@H](c2cccc(Cl)c2)[C@H]1c1ccc(Cl)cc1 (single isomer, unassigned) [Example 371] | 15
3 | CC[C@@H](CS(=O)(=O)C(C)(C)C)N1C(=O)[C@@H](C[C@@H](O)CO)O[C@H](c2cccc(Cl)c2)[C@H]1c1ccc(Cl)cc1 (single isomer, unassigned) [Example 372] | 67
4 | CC[C@@H](CS(=O)(=O)C(C)(C)C)N1C(=O)[C@@H](C[C@@H](O)CO)O[C@H](c2cccc(Cl)c2)[C@H]1c1ccc(Cl)cc1 (single isomer, unassigned) [Example 373] | 45
5 | CC[C@@H](CS(=O)(=O)C(C)(C)C)N1C(=O)[C@@H](C[C@@H](O)CO)O[C@H](c2cccc(Cl)c2)[C@H]1c1ccc(Cl)cc1 (single isomer, unassigned) [Example 374] | 19
6 | CC[C@@H](CS(=O)(=O)C(C)(C)C)N1C(=O)[C@@H](CNC(=O)N(CC)CC)O[C@H](c2cccc(Cl)c2)[C@H]1c1ccc(Cl)cc1 (single isomer, unassigned) [Example 375, 3-(((2R,5R,6R)-4-((S)-1-(tert-Butylsulfonyl)butan-2-yl)-6-(3-chlorophenyl)-5-(4-chlorophenyl)-3-oxomorpholin-2-yl)methyl)-1,1-diethylurea or 3-(((2S,5R,6R)-4-((S)-1-(tert-butylsulfonyl)butan-2-yl)-6-(3-chlorophenyl)-5-(4-chlorophenyl)-3-oxomorpholin-2-yl)methyl)-1,1-diethylurea] | 55
7 | CC[C@@H](CS(=O)(=O)C(C)(C)C)N1C(=O)[C@@H](CNC(=O)N(CC)CC)O[C@H](c2cccc(Cl)c2)[C@H]1c1ccc(Cl)cc1 (single isomer, unassigned) [Example 376, 3-(((2R,5R,6R)-4-((S)-1-(tert-Butylsulfonyl)butan-2-yl)-6-(3-chlorophenyl)-5-(4-chlorophenyl)-3-oxomorpholin-2-yl)methyl)-1,1-diethylurea or 3-(((2S,5R,6R)-4-((S)-1-(tert-butylsulfonyl)butan-2-yl)-6-(3-chlorophenyl)-5-(4-chlorophenyl)-3-oxomorpholin-2-yl)methyl)-1,1-diethylurea] | 48
8 | CC[C@@H](CS(=O)(=O)C(C)(C)C)N1C(=O)[C@@H](CNC(C)=O)O[C@H](c2cccc(Cl)c2)[C@H]1c1ccc(Cl)cc1 (single isomer, unassigned) [Example 379, N-(((2R,5R,6R)-4-((S)-1-(tert-Butylsulfonyl)butan-2-yl)-6-(3-chlorophenyl)-5-(4-chlorophenyl)-3-oxomorpholin-2-yl)methyl)acetamide or N-(42S,5R,6R)-4-((S)-1-(tert-butylsulfonyl)butan-2-yl)-6-(3-chlorophenyl)-5-(4-chlorophenyl)-3-oxomorpholin-2-yl)methyl)acetamide] | 82
9 | CC[C@@H](CS(=O)(=O)C(C)(C)C)N1C(=O)[C@@H](CNC(C)=O)O[C@H](c2cccc(Cl)c2)[C@H]1c1ccc(Cl)cc1 (single isomer, unassigned) [Example 380, N-(((2R,5R,6R)-4-((S)-1-(tert-Butylsulfonyl)butan-2-yl)-6-(3-chlorophenyl)-5-(4-chlorophenyl)-3-oxomorpholin-2-yl)methyl)acetamide or N-(((2S,5R,6R)-4-((S)-1-(tert-butylsulfonyl)butan-2-yl)-6-(3-chlorophenyl)-5-(4-chlorophenyl)-3-oxomorpholin-2-yl)methyl)acetamide] | 48
10 | CC(C)(C)S(=O)(=O)C[C@H](C1CC1)N1C(=O)[C@@H](Cc2cnn[nH]2)O[C@H](c2cccc(Cl)c2)[C@H]1c1ccc(Cl)cc1 (single isomer, unassigned) [Example 385, (2R,5R,6R)-2-((1H-1,2,3-Triazol-5-yl)methyl)-4-((S)-2-(tert-butylsulfonyl)-1-cyclopropylethyl)-6-(3-chlorophenyl)-5-(4-chlorophenyl)morpholin-3-one or (2S,5R,6R)-2-((1H-1,2,3-triazol-5-yl)methyl)-4-((S)-2-(tert-butylsulfonyl)-1-cyclopropylethyl)-6-(3-chlorophenyl)-5-(4-chlorophenyl)morpholin-3-one] | 4
11 | CC(C)(C)S(=O)(=O)C[C@H](C1CC1)N1C(=O)[C@@H](Cc2cnn[nH]2)O[C@H](c2cccc(Cl)c2)[C@H]1c1ccc(Cl)cc1 (single isomer, unassigned) [Example 386, (2R,5R,6R)-2-((1H-1,2,3-Triazol-5-yl)methyl)-4-((S)-2-(tert-butylsulfonyl)-1-cyclopropylethyl)-6-(3-chlorophenyl)-5-(4-chlorophenyl)morpholin-3-one or (2S,5R,6R)-2-((1H-1,2,3-triazol-5-yl)methyl)-4-((S)-2-(tert-butylsulfonyl)-1-cyclopropylethyl)-6-(3-chlorophenyl)-5-(4-chlorophenyl)morpholin-3-one] | 13
12 | CC(C)(C)S(=O)(=O)C[C@H](C1CC1)N1C(=O)[C@@H](CC#N)O[C@H](c2cccc(Cl)c2)[C@H]1c1ccc(Cl)cc1 (single isomer, unassigned) [Example 387, 2-((2R,5R,6R)-4-((S)-2-(tert-Butylsulfonyl)-1-cyclopropylethyl)-6-(3-chlorophenyl)-5-(4-chlorophenyl)-3-oxomorpholin-2-yl)acetonitrile or 2-((2S,5R,6R)-4-((S)-2-(tert-butylsulfonyl)-1-cyclopropylethyl)-6-(3-chlorophenyl)-5-(4-chlorophenyl)-3-oxomorpholin-2-yl)acetonitrile] | 62
13 | CC(C)(C)S(=O)(=O)C[C@H](C1CC1)N1C(=O)[C@@H](CC#N)O[C@H](c2cccc(Cl)c2)[C@H]1c1ccc(Cl)cc1 (single isomer, unassigned) [Example 388, 2-((2R,5R,6R)-4-((S)-2-(tert-Butylsulfonyl)-1-cyclopropylethyl)-6-(3-chlorophenyl)-5-(4-chlorophenyl)-3-oxomorpholin-2-yl)acetonitrile or 2-((2S,5R,6R)-4-((S)-2-(tert-butylsulfonyl)-1-cyclopropylethyl)-6-(3-chlorophenyl)-5-(4-chlorophenyl)-3-oxomorpholin-2-yl)acetonitrile] | 28
14 | CC(C)(C)S(=O)(=O)C[C@H](C1CC1)N1C(=O)[C@@H](Cc2ncn[nH]2)O[C@H](c2cccc(Cl)c2)[C@H]1c1ccc(Cl)cc1 (single isomer, unassigned) [Example 389, (2R,5R,6R)-2-((1H-1,2,4-Triazol-5-yl)methyl)-4-((S)-2-(tert-butylsulfonyl)-1-cyclopropylethyl)-6-(3-chlorophenyl)-5-(4-chlorophenyl)morpholin-3-one or (2S,5R,6R)-2-((1H-1,2,4-triazol-5-yl)methyl)-4-((S)-2-(tert-butylsulfonyl)-1-cyclopropylethyl)-6-(3-chlorophenyl)-5-(4-chlorophenyl)morpholin-3-one] | 19
15 | CC(C)(C)S(=O)(=O)C[C@H](C1CC1)N1C(=O)[C@@H](Cc2ncn[nH]2)O[C@H](c2cccc(Cl)c2)[C@H]1c1ccc(Cl)cc1 (single isomer, unassigned) [Example 390, (2R,5R,6R)-2-((1H-1,2,4-Triazol-5-yl)methyl)-4-((S)-2-(tert-butylsulfonyl)-1-cyclopropylethyl)-6-(3-chlorophenyl)-5-(4-chlorophenyl)morpholin-3-one or (2S,5R,6R)-2-((1H-1,2,4-triazol-5-yl)methyl)-4-((S)-2-(tert-butylsulfonyl)-1-cyclopropylethyl)-6-(3-chlorophenyl)-5-(4-chlorophenyl)morpholin-3-one] | 11
16 | Cc1n[nH]c(C[C@H]2O[C@H](c3cccc(Cl)c3)[C@@H](c3ccc(Cl)cc3)N([C@H](CN(c3ccccc3F)S(=O)(=O)C3CC3)C3CC3)C2=O)n1 (single isomer, unassigned) [Example 392, N-((S)-2-((2R,3R,6R)-2-(3-Chlorophenyl)-3-(4-chlorophenyl)-6-((3-methyl-1H-1,2,4-triazol-5-yl)methyl)-5-oxomorpholino)-2-cyclopropylethyl)-N-(2-fluorophenyl)cyclopropanesulfonamide or N-((S)-2-((2S,3R,6R)-2-(3-chlorophenyl)-3-(4-chlorophenyl)-6-((3-methyl-1H-1,2,4-triazol-5-yl)methyl)-5-oxomorpholino)-2-cyclopropylethyl)-N-(2-fluorophenyl)cyclopropanesulfonamide] | < 1
17 | Cc1n[nH]c(C[C@H]2O[C@H](c3cccc(Cl)c3)[C@@H](c3ccc(Cl)cc3)N([C@H](CN(c3ccccc3F)S(=O)(=O)C3CC3)C3CC3)C2=O)n1 (single isomer, unassigned) [Example 393, N-((S)-2-((2R,3R,6R)-2-(3-Chlorophenyl)-3-(4-chlorophenyl)-6-((3-methyl-1H-1,2,4-triazol-5-yl)methyl)-5-oxomorpholino)-2-cyclopropylethyl)-N-(2-fluorophenyl)cyclopropanesulfonamide or N-((S)-2-((2S,3R,6R)-2-(3-chlorophenyl)-3-(4-chlorophenyl)-6-((3-methyl-1H-1,2,4-triazol-5-yl)methyl)-5-oxomorpholino)-2-cyclopropylethyl)-N-(2-fluorophenyl)cyclopropanesulfonamide] | < 1
